Read-outs that look alike come from different tables or passages of the source.
Assays:
MBP (myelin) in brain = test: Remyelination in chronically demyelinated mice (cuprizone model), MBP staining; type: in vivo, C57BL/6 mice; conditions: for In vivo MBP Increases: MBP staining at day 10 after the first dose, blinded score
Description: The ability of newly constructed compounds (described in above Examples) to induce remyelination after demyelination in adult mice was tested using a cuprizone model. Cuprizone administration specifically induces the loss of myelin and oligodendrocytes. Mice were maintained on cuprizone chow to induce demyelination, the cuprizone was discontinues, and the compounds were administered. The animals were sacrificed 10 days after compound administration was initiated and their brains sections and stained for MBP, an important component of myelin.
The chow was stored at 4° C. until use.
Mice were allowed ad libitum access to cuprizone chow. […] The cuprizone diet was discontinued 24 hours before compound treatment was initiated.
To assess oligodendrocyte differentiation, the mice were euthanized and assessed at day 3 after the first dose. To assess MBP expression, the animals were euthanized and assessed at day 10 after the first dose.
For some compounds, MBP intensity, an intensity weighted positive pixel count, was measured using an algorithm developed in Visiopharm Software.

[1] = system: GPR17+ cells (newly differentiated oligodendrocytes); test: In vivo OPC differentiation, GPR17+ cells in brain
[2] = system: Oligodendrocyte progenitor cells (OPCs); test: In vitro OPC differentiation assay, MBP expression (immunocytochemistry); conditions: 72 hours of treatment; fold change over vehicle
Description: Cortices from postnatal day (P) 1-3 rats were dissected and collected into ice cold Hank's Balanced Salt Solution (HBSS). […] Briefly, the cortical cell suspension was centrifuged and washed with buffer (0.5% BSA in PBS) and labeled with Anti-A2B5 MicroBeads (10 μL beads per 1×10^7 cells) for 15 minutes at 4° C. Following the incubation, cells were washed once with BSA buffer to remove unlabeled beads. A2B^5 positive cells were eluted on the column using the AutoMACS® (Miltenyi, as per manufacturer's protocol using “possel-s” program). Eluted cells were further washed twice with OPC growth media. Cell count was performed using Countess III cell counter (ThermoFisher; AMQAX2000) and cells were plated.
A2B5+ OPCs were plated in poly-d-lysine (PDL) coated T75 flask at a density of ˜3 million cells per flask. […] TrypLE was normalized by adding 10 mL growth media and cells were centrifuged at 1400 rpm for 10 minutes. […] The plates were allowed to sit at room temperature for 15 minutes to ensure proper dispersion of cells in a well. The plates were then transferred to the incubator (37° C.; 5% CO2).
Cells were then incubated for 72 hours at 37° C., 5% CO2 before immunostaining for MBP marker expression.
Following 72 hours of treatment, cells were fixed with 4% paraformaldehyde for 15 minutes then washed three times in DPBS. Prior to staining, cells were blocked for 15 minutes in 10% normal goat serum containing 1% BSA and 0.1% Triton X-100 in DPBS. Primary antibody (MBP @ 1:2000; Abcam AB7349) was applied to cells overnight at 4° C. in incubation solution containing 1% normal goat serum, 1% BSA, and 0.1% Triton X-100 in DPBS.
The number of differentiated MBP+ cells was normalized to the total nuclei count and percent differentiated MBP+ cells were reported.

PDGFRα = PDGFRα (Homo sapiens (Human), UniProt P16234); test: PDGFRα kinase enzyme assay (Promega PDGFRα Kinase Enzyme System, ADP-Glo); type: biochemical; conditions: 150 uM ATP
Sequence of PDGFRα (P16234 24-1089): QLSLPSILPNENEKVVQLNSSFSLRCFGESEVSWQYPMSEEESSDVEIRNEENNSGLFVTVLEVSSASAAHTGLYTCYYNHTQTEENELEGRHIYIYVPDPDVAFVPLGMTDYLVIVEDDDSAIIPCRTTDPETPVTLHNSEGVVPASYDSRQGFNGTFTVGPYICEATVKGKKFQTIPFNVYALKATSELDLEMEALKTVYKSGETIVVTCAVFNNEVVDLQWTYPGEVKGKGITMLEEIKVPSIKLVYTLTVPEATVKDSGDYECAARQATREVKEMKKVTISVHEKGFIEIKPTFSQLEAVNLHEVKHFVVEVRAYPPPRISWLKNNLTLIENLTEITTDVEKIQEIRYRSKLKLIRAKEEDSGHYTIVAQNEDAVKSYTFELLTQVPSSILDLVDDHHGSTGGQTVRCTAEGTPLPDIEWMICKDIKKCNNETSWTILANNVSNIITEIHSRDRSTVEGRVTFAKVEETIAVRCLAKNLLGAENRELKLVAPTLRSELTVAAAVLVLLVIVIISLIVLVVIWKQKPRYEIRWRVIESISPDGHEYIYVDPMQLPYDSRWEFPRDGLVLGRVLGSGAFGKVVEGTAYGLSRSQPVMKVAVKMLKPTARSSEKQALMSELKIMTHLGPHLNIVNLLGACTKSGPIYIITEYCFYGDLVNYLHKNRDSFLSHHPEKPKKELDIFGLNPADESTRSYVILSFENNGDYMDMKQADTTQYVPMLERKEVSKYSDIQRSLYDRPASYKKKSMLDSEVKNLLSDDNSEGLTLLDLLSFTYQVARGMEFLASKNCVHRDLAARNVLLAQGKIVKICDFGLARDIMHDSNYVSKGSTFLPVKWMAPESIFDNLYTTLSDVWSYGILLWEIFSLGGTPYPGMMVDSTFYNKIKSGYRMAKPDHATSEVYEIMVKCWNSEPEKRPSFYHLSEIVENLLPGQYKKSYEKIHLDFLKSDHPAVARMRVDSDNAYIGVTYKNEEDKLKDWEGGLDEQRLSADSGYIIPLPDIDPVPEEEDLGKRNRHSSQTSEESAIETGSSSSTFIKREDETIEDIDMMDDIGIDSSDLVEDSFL
Procedure, shortened: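 Read-out was ADP-Glo: remaining ATP depleted, ADP converted to luminescence and compared with a standard curve.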

[3] = system: Oligodendrocyte progenitor cells (OPCs); test: In vitro OPC differentiation assay, GPR17 expression (immunocytochemistry); conditions: 72 hours, fold change over vehicle
In vivo half-life = conditions: comparison in words

Row | In vivo GPR17+ cells, GPR17 Fold Induction (Over Vehicle) ([1]; adult female C57BL/6 mice, PO or IP, treatment period 1-3 days, entire brain, fold change over vehicle treated animals) | MBP Fold Induction (Over vehicle) [2] | IC50 (PDGFRα; 20 ng purified PDGFRα, Poly (Glu4Tyr1) substrate, two hours, 11-point dose response, read-out: IC50 Values on PDGFRα Kinase Inhibition) | IC50 (PDGFRα; 11-point dose response, 10,000 nM to 0.169 nM, BLQ = below limit of quantitation, read-out: IC50 Values on PDGFRα Kinase Inhibition, IC50) | GPR17 Fold Induction (Over Vehicle; 3 μM) ([3]; 3 μM (10× concentration, final 0.3 μM)) | GPR17 Fold Induction (Over Vehicle; 5 μM) ([3]; 5 μM (10× concentration, final 0.5 μM)) | Half-life (In vivo half-life) | Compound | In vivo MBP Increases (MBP (myelin) in brain) | MBP expression within the different regions of the brain (MBP (myelin) in brain; single dose, versus vehicle control) | fold induction at 150 mg/kg ([1]; Mus musculus, po, 24 h, read-out: GPR17 Fold Induction (Over Vehicle))
1 | – | – | – | – | – | – | – | Cn1cc(-c2cc3c(N4CCN(c5ncc([C@@](C)(N)c6ccc(F)cc6)cn5)CC4)ncnn3c2)cn1 [Avapritinib, avapritinib, reference compound] | ++++ (given a score from 1 to 5) | – | –
2 | 1.55 | – | – | – | – | – | – | CN1CCC[C@@H]1CCO[C@](C)(c1ccccc1)c1ccc(Cl)cc1 [Clemastine, clemastine, reference compound] | + (given a score from 1 to 5) | – | –
3 | – | 2.95 | < 1000 nM | 407 nM | 4.47 | 4.07 | longer half-life | Cn1cc(-c2ccc3c(N4CCN(c5ncc(Cc6ccccc6)cn5)CC4)cnn3c2)cn1 [Compound 6, 3-[4-(5-benzylpyrimidin-2-yl)piperazin-1-yl]-6-(1-methyl-1H-pyrazol-4-yl)pyrazolo[1,5-a]pyridine] | +++++ (5 representing the level of myelination observed in naïve, healthy animals that had not undergone demyelination) | significant increase in MBP expression | 18.7

Reference: patent publication US20250129067A1 (Progentos Therapeutics, Inc., priority 2021, published 2025)
